We go through two molecules from patent US20260008760A1, “DIPEPTIDYL PEPTIDASE 1 INHIBITORS AND USES THEREOF” (Insmed Incorporated, priority 2024, published 2026).

Molecules are shown by their SMILES.

For assay [1], the target named is T1, human DPP1 enzyme (Homo sapiens, UniProt P53634). As to the kind of experiment: Human DPP1 Enzyme IC50 Assay. Type of assay: biochemical. Also noted: was first proteolytically processed into its mature form using recombinant human cathepsin L; purchased R&D Systems. The following applies: activated recombinant human DPP1, 400 μM H-Gly-Arg-AMC, 10 minutes pre-incubation at 37° C., pH 6.0; average of n runs; read-out: Avg. IC50 (Human DPP1 enzyme IC50 value ranges). The method in brief: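 Recombinant human DPP1, pre-activated with cathepsin L (pH 4.5), was preincubated with compound 10 min at 37 °C in MES pH 6.0, 50 mM NaCl, 5 mM DTT, 1% DMSO. Cleavage of 400 μM (final) H-Gly-Arg-AMC followed by fluorescence (350/450 nm) over 90 min at 37 °C; IC50 from four-parameter logistic fit versus no-compound control.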
Target sequence in this assay (P53634 25-134 limits assumed): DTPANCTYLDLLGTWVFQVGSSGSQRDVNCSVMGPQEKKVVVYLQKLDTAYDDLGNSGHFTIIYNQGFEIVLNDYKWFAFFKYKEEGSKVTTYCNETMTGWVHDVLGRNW
Target sequence in this assay (P53634 231-394 limits assumed): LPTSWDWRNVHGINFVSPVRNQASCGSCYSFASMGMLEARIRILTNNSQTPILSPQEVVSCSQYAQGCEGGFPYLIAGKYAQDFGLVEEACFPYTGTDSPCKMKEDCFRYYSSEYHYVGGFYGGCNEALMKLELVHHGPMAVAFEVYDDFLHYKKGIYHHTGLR
Target sequence in this assay (P53634 395-463 limits assumed): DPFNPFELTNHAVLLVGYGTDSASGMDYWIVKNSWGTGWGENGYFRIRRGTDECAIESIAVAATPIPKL

Assay [2] has as its target T1, human DPP1 enzyme. The assay can be described thus: Human DPP1 Enzyme Single-Point Percent Inhibition Testing (HL-60 lysate). Type of assay: biochemical. Also noted: A crude lysate of HL-60 cells (ATCC; Manassas, VA) was used as a source of human DPP1 enzyme; host or cells: HL-60 cells (crude lysate). As to conditions: final compound concentration of 10 nM, 400 μM H-Gly-Arg-AMC, n = 1. The method in brief: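 Enzyme source was HL-60 cell lysate in MES pH 6.0 buffer with NaCl and DTT, pre-incubated 10 min at 37° C with 10 nM compound (final, 1% DMSO). Cleavage of 400 μM H-Gly-Arg-AMC was followed at 350/450 nm over 90 min at 37° C, and percent inhibition was taken against vehicle wells.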
Target sequence in this assay (P53634 25-463): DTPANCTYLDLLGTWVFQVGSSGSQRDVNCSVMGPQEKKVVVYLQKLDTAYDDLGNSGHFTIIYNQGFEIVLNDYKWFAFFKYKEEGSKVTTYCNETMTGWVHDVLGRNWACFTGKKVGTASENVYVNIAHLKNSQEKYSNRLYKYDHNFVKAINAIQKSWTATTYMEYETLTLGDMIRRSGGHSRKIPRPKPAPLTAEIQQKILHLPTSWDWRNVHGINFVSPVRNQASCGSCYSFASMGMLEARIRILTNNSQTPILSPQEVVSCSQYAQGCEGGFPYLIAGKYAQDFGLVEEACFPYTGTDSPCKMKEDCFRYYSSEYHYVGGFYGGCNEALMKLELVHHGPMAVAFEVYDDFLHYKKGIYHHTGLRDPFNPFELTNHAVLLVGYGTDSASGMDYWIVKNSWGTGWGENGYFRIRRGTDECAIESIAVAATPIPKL

In the case of `N#C[C@H](Cc1ccc(-c2cnc3c(n2)CCCC3)cc1)NC(=O)[C@@H]1CNCCCO1` [Compound A11, (2S)—N-[(1S)-1-cyano-2-[4-(5,6,7,8-tetrahydroquinoxalin-2-yl)phenyl]ethyl]-1,4-oxazepane-2-carboxamide], the IC50 on human DPP1 enzyme [1] is above 15 nM. At human DPP1 enzyme [2], this molecule returned an inhibition at 0.01 µM of at most 40%.

As to `CN1CCCC2(C1)C(=O)N(C)c1ccc(-c3ccc(C[C@@H](C#N)NC(=O)[C@@H]4CNCCCO4)cc3)cc12` (stereo partly drawn) [Compound 18, (2S)—N-[(1S)-1-cyano-2-(4-{1,1′-dimethyl-2-oxospiro[indole-3,3′-piperidin]-5-yl}phenyl)ethyl]-1,4-oxazepane-2-carboxamide], on human DPP1 enzyme [1], the IC50 was above 15 nM. The same molecule registered an inhibition at 0.01 µM on human DPP1 enzyme [2] of at most 40%.

One may read the IC50 as the point on the concentration scale where inhibition reaches its midpoint. By inhibition is commonly meant the relative decrease from the control value, in per cent. A lower inhibition goes with little suppression.
